Data: patent publication US11097016B2, “Use of lyso-Gb1 as druggable target” (Centogene GmbH, priority 2016, dated 2021)
Entries after “also recorded” stand apart in the source; their conditions may differ.

Columns and labels:
[1] = test system: CD68 and F4/80 positive cells; experiment: Immunohistochemistry of spleen sections (anti-CD68, anti-F4/80); type: in vivo, C57BL/6JRj mice
Procedure: For immunohistochemistry 5 μm paraffin sections of the spleens of 8-week treated mice were subjected to rat anti-CD68 clone FA-11 (1:100, Bio-Rad Laboratories, Raleigh, N.C., USA) and rat anti-mouse F4/80 Cl:A3-1 (1:100, BioLegend, San Diego, Calif., USA). Sections were then deparaffinised, rehydrated and pre-treated in the microwaves in 0.1 M citrate buffer (5 min 850 W and 5 min 340 W) followed by consecutive incubation with 3% H2O2 in PBS to block endogenous peroxidases for 30 min, then 3% bovine serum albumin with 1.5% normal goat serum (NGS) in PBS for 1 h to block nonspecific epitopes. Subsequently, sections were exposed to the primary antibody in 3% NGS/PBS overnight at 4° C. Depending on the primary antibody and after washing in PBS, the sections were sequentially incubated for 1 h with the secondary anti-rat or anti-mouse IgG (1:200; Vector, Burlingame, Calif., USA), streptavidin-biotin-complex (ABC) reagent for 1 h (Vectastain-Elite; Vector, Burlingame, Calif., USA) and then finally visualised with 3,-3,-diaminobenzidine (DAB, Sigma, Munich, Germany), which was activated with H2O2. Sections were counterstained with hematoxylin, dehydrated, mounted with DePeX and coverslipped.

Organ weight analysis = type: in vivo, C57BL/6JRj mice
Procedure: (§1) Blood sampling was carried out using Li-heparine blood obtained from the lateral tail vein. At each sampling time point 2 aliquots of 20 μl were transferred to dried blood spot filter cards (Centogene AG, Rostock, Germany). After the last sampling time point the mice were sacrificed by inhalation of an overdose of isoflurane and organs were removed, frozen and collected for future examinations. Where applicable, organs were intersected. Half of the organ was immediately frozen in liquid nitrogen. The other half was formalin-fixed and paraffin-embedded for histologic analysis (Histalim, Montpellier, France).
3.2 As anemia is a frequent result of enlarged spleen, another hallmark of Gaucher disease, an organ weight analysis, a Western blot analysis and size and color analysis of the spleen was carried out. The results thereof are shown in FIG. 4A, FIG. 4B and FIG. 4C.

TNF-α and IL-1β = experiment: Cytokine analysis in blood (ProcartaPlex Multiplex Immunoassay); type: in vivo, mice
Procedure: The ProcartaPlex® Multiplex Immunoassay (ebioscience, San Diego, Calif.) was carried out following the instructions of the provider. Differences between the animal groups were obtained using automated MAGPIX® analysis device software (Luminex, Austin, Tex.) including quality control criteria.

[2] = Lyso-Gb1 level in blood (dried blood spots, LC/MRM-MS) upon continuous subcutaneous administration; type: in vivo, C57BL/6JRj mice
Procedure: (§2) Animal experimental procedures were carried out at Pharmacelsus GmbH, Saarbrücken, Germany. Adult male C57BL/6JRj mice (10 weeks old, purchased from Janvier Labs, France) were housed in a temperature-controlled room (20-24° C.) and maintained in a 12 h light/12 h dark cycle. Food (Ssniff® R/M-H, 10 mm) and water were provided ad libitum.
All experimental procedures were approved by and conducted in accordance with the regulations of the local Animal Welfare authorities. The lyso-Gb1 stock solution was prepared in DMSO and propylene glycol at 37° C. with ultrasonic bath treatment for 10 min. Subcutaneous administration of lyso-Gb1 (Matreya LLC, USA) was achieved by the use of ALZET pumps implanted in the back of their necks and set to a flow rate of 2.64 μl/day in order to obtain a daily dosage of 10 mg lyso-Gb1/kg body weight. The pumps were loaded with the stock solution and primed prior to implantation according to the manufacturer's instructions.
as §1
3 punches of 3.2 mm in diameter were cut using a DBS puncher (Perkin Elmer LAS, Germany) and placed in a 2.2 ml round bottom tube (Eppendorf, Germany). 50 μl extraction solution (DMSO: water, 1:1) and 100 μI internal standard solution with the standard being dissolved in ethanol were added on top of the paper punches. Samples were mixed for 30 seconds and placed in an incubator (Heidolph, Schwabach, Germany) for 30 minutes at 37° C. under agitation at 700 rpm. […]
LC-MRM-MS analyses of the lyso-Gb1 for both DBS and organ extracts were performed using a Waters Acquity UPLC (Waters, UK) coupled with an ABSciex 5500 TripleQuad mass spectrometer (ABSciex, Darmstadt, Germany). […] The following MRM transitions were monitored: 624.3-282.2 for the internal standard (with DP of 30V, CE of 38 V and CXP of 10 V) and 462.3→282.2 for lyso-Gb1 (with DP of 28V, CE of 30 V and CXP of 10 V). MRM-MS analyses were performed in positive ion mode using the following parameters: CUR gas 40 psi, IS voltage 5.5 kV, CAD 8 psi, cone temperature 500° C., GS 1 45 psi, GS2 60 psi, EP 10 V. For all batches analyzed a standard curve was measured using 7 dilutions of lyso-Gb1 in ethanol (concentrations in ng/ml: 0; 5; 10; 50; 100; 200; 1000). […]

[3] = Lyso-Gb1 in 24 hr urine (LC/MRM-MS); type: in vivo, C57BL/6JRj mice; conditions: 6 weeks after treatment start
Procedure: 25 μL urine aliquots were added to 100 μL of internal standard and 250 μL ethanol. The samples were cooled to 4° C. for 1 h to precipitate the urine proteins, after which they were spun in a benchtop centrifuge for 3 minutes at 14,500 rpm. The volume of each sample was quantitatively transferred to a 96-well plate, and further processed as described above.
LC-MRM-MS analyses of the lyso-Gb1 for both DBS and organ extracts were performed using a Waters Acquity UPLC (Waters, UK) coupled with an ABSciex 5500 TripleQuad mass spectrometer (ABSciex, Darmstadt, Germany). Chromatographic run was performed on a C8 column with pore size of […] (ACE columns, Germany) using a flow rate of 0.9 ml/min preheated at 60° C. […] The following MRM transitions were monitored: 624.3-282.2 for the internal standard (with DP of 30V, CE of 38 V and CXP of 10 V) and 462.3→282.2 for lyso-Gb1 (with DP of 28V, CE of 30 V and CXP of 10 V). MRM-MS analyses were performed in positive ion mode using the following parameters: CUR gas 40 psi, IS voltage 5.5 kV, CAD 8 psi, cone temperature 500° C., GS 1 45 psi, GS2 60 psi, EP 10 V. For all batches analyzed a standard curve was measured using 7 dilutions of lyso-Gb1 in ethanol (concentrations in ng/ml: 0; 5; 10; 50; 100; 200; 1000).

F4/80 and CD68 = experiment: Western blot of inflammatory tissue markers F4/80 and CD68 in spleen and liver; type: in vivo, C57BL/6JRj mice
Procedure: Livers and spleens were homogenized in RIPA buffer containing proteinase and phosphatase inhibitor (Roche, Mannheim, GER). Lysates were centrifuged at 15,000 g, 4° C. for 15 min to remove insoluble pellet, and supernatant was collected. Protein concentration was measured using Pierce BCA Protein Assay Kit (Thermo Fisher Scientific, Waltham, Mass.). Typically, […] protein was loaded for electrophoresis on a 4%-15% precast Tris-glycine gradient gel (BioRad, Mannheim, GER). The protein was subsequently transferred to a nitrocellulose membrane by semidry transfer apparatus (BioRad, Munich, GER) for immunodetection analysis. The target proteins were detected by rat anti F4/80 (1:500, Biolegend, San Diego, Calif.), rat anti-CD68 [FA-11] (1:200 abcam, Cambridge, UK) mouse anti GAPDH (1:10,000, abcam, Cambridge, UK), each in TBST supplemented with 5% skim milk powder (Sigma Aldrich, Munich, GER). Fluorescent conjugate secondary antibodies were applied for the detection with a Li-Cor Odyssey imaging system (Bad Homburg, GER).
In order to investigate the molecular changes of both spleen and liver in terms of tissue inflammation macrophagic marker proteins F4/80 and CD68 were analysed.

[4] = Blood count analysis for systemic damage; type: in vivo, C57BL/6JRj mice
Procedure: Mice were exsanguinated via the retrobulbar venous plexus under isoflurane anesthesia before being sacrificed by overdose inhalation. 200 μL EDTA samples of whole blood were drawn from each animal to analyze […], leukocyte count, erythrocyte count, hemoglobin (Hb), hematocrit (PCV=packed cell volume, Hct), mean cell volume (MCV), mean cell Hb (MCH), mean cell Hb concentration. (MCHC) and platelet count (PLT) (IDEXX Bioresearch, Ludwigsburg, Germany).
3.1 It was tested whether the high lyso-Gb1 levels caused systemic damage to the animals. Such systemic damage was assessed by blood count analysis.

[5] = Lyso-Gb1 determination in organs (LC/MRM-MS); type: in vivo, C57BL/6JRj mice
Procedure: After extraction from the animal, the organs were immediately deep-frozen in liquid nitrogen. The samples were lyophilized (Alpha 2-4 LSC, Christ, Osterode am Harz, GER) and powdered with mortar and pistil. Fractions of 2 to 5 mg powder were established in round bottom tubes. On top of the powder, 50 μl per mg powder extraction solution was added and the sample was incubated for 5 minutes at 37° C. under agitation. Subsequently, the samples were frozen in liquid nitrogen for 30 seconds and sonicated with boost function for 5 minutes. The incubation, freezing and sonication steps were repeated 6 times. At the end the mixtures were vortexed and aliquots of 25 μl suspension were used for the lyso-Gb1 determination. Each sample was supplemented with 100 μl Internal Standard (lyso-Gb2, 200 ng/ml) and 250 μl ethanol. The samples were cooled at 4° C. for 1 h to precipitate the membrane proteins and spun in a benchtop centrifuge for 3 minutes at 14.5 krpm. The volume of each sample was quantitatively transferred to a 96-well filter plate and further processed as described above.
LC-MRM-MS analyses of the lyso-Gb1 for both DBS and organ extracts were performed using a Waters Acquity UPLC (Waters, UK) coupled with an ABSciex 5500 TripleQuad mass spectrometer (ABSciex, Darmstadt, Germany). Chromatographic run was performed on a C8 column with pore size of […] (ACE columns, Germany) using a flow rate of 0.9 ml/min preheated at 60° C. The 10 μl extract were injected on the column and the compounds were eluted using a linear gradient from 40% A (50 mM formic acid in water) to 100% B (50 mM formic acid in acetone:acetonitrile vol. 1:1). Upstream from UPLC a 3:1 flow splitter was added. The following MRM transitions were monitored: 624.3-282.2 for the internal standard (with DP of 30V, CE of 38 V and CXP of 10 V) and 462.3→282.2 for lyso-Gb1 (with DP of 28V, CE of 30 V and CXP of 10 V). MRM-MS analyses were performed in positive ion mode using the following parameters: CUR gas 40 psi, IS voltage 5.5 kV, CAD 8 psi, cone temperature 500° C., GS 1 45 psi, GS2 60 psi, EP 10 V. For all batches analyzed a standard curve was measured using 7 dilutions of lyso-Gb1 in ethanol (concentrations in ng/ml: 0; 5; 10; 50; 100; 200; 1000).
After 4 weeks from treatment start the organs of the mice were subjected to lyso-Gb1 analysis.

[6] = Histopathological evaluation (H&E) of spleen, liver and femur; type: in vivo, C57BL/6JRj mice; conditions: data not shown
Procedure: After removal, organs were fixed in formalin for 24 h and transferred into 70% ethanol. To ensure a non-biased comparison the same parts of organs were analysed by HISTALIM (Montpellier, France). The samples were processed on the Peloris automaton (Leica, Wetzlar, Germany) according to the 4 h program validated for mouse organs. The samples were embedded in paraffin wax according to HISTALIM procedures. For the liver, spleen and femur samples, a section (3-5 μm thickness) was prepared and deposited preferentially on Superfrost+slide (to ensure tissue adhesion) to be stained according to a validated hematoxylin/eosin (H&E) protocol. All the slides were digitalised with the Nanozoomer scanner (Hamamatsu Photonics, Hamamatsu, Japan) in conditions bright field conditions, with the objective×20, without Z stack. Slides were examined by a senior histopathologist to assess the toxicological effects of lyso-Gb1 on the tested mice.

[7] = General health, body weight and behaviour during treatment; type: in vivo, C57BL/6JRj mice
Procedure: as §2
Ten weeks old C57BL/6JRj mice were subcutaneously treated with high doses (10 mg*kg−1*day−1) of lyso-Gb1 for a period of up to 84 days (12 weeks).

CCCCCCCCCCCCC/C=C/[C@@H](O)[C@@H](N)CO[C@@H]1O[C@H](CO)[C@@H](O)[C@H](O)[C@H]1O [lyso-Gb1, glucosylsphingosine]
number of CD68 and F4/80 positive cells in spleen sections in comparison to vehicle controls ([1]; paraffin sections from spleen): marked increase | CD68-immunoreactivity in spleen compared to vehicle controls ([1]; spleens of 8-week treated mice): strong increase | F4/80 immunoreactivity in spleen compared to vehicle controls ([1]; spleens of 8-week treated mice): increased | liver weight versus controls (Organ weight analysis; 8 and 12 weeks): not statistically significantly different; also recorded: not statistically distinct from control animals | spleen weight versus controls (Organ weight analysis; 8 and 12 weeks from treatment initiation): enlarged | liver size in subsequent experiment (Organ weight analysis; lyso-Gb1 treatment started earlier (P20), data not shown): marked enlargement of the liver | size of heart, lung and kidney (Organ weight analysis; mouse, in vivo): normal in size | TNF-α and IL-1β in the blood (TNF-α and IL-1β): slight elevation | upregulation of most investigated cytokines (TNF-α and IL-1β): did not find significant upregulation | lyso-Gb1 levels in blood ([2]; 24 hrs after treatment start (data not shown)): strongly elevated | increase of blood lyso-Gb1 level compared to the vehicle-treated mice ([2]; after 4, 8 and 12 weeks, s.c. 10 mg/kg/day): more than 500 fold | lyso-Gb1 level in blood ([2]; after 4, 8 and 12 weeks, s.c. osmotic pump, 10 mg lyso-Gb1/kg body weight daily): 700 to 900 ng/mL | concentration at 4 weeks ([2]; male, C57BL/6JRj, mouse, whole blood (dried blood spots), sc, 10 mg/kg/day, 4 weeks after begin of treatment, s.c. 10 mg*kg−1*day−1): > 500 ng/mL | calculated excretion rate of lyso-Gb1 in urine [3]: 0.6 ng/min | F4/80 and CD68 protein levels in liver (Western blot) (F4/80 and CD68; liver): only mild changes | F4/80 and CD68 protein levels in spleen (Western blot) (F4/80 and CD68; spleen): pronounced increase; also recorded: elevated | Hb (hemoglobin) values ([4]; 4, 8 and 12 weeks, 2× SD below the baseline value at each time point): mild anemia; also recorded: mild anaemia | Hct (haematocrit) values ([4]; differed at 4 and 8 weeks after treatment initiation): significantly differed; also recorded: lowered | thrombocytopenia / white blood cell abnormalities ([4]; up to 12 weeks treatment): no thrombocytopenia or abnormalities in white blood cells | organ with highest lyso-Gb1 levels ([5]; 4 weeks from treatment start): kidney and liver | lyso-Gb1 levels in peripheral organs (heart, kidney, liver, spleen) compared to control animals ([5]; 4 weeks from treatment start, 10 mg*kg^−1*day^−1): strongly elevated | increase of brain lyso-Gb1 ([5]; 4 weeks from treatment start, attributed to carryover of blood in tissue capillaries): 2 fold | crossing of the blood brain barrier ([5]; concluded from negligible increase in brain lyso-Gb1): not able to cross the blood brain barrier | H&E histological stain of spleen, liver and femur, vehicle vs lyso-Gb1 treated [6]: did not reveal significant abnormalities | behaviour ([7]; mouse, in vivo): no behavioral abnormalities | body weight / health status ([7]; throughout the experimental phase (up to 12 weeks)): did not lose weight
